Data from PubChem BioAssay (NCI).
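Dose response: 5 concentrations. Exposure: 48 h. Format: 96-well plates. Endpoint: linear interpolation; highest concentration if not reached. GI50 = concentration required for 50% inhibition of growth. At the TGI there is no net growth.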

Experiments:
Experiment in all cases: NCI tumour cell line growth inhibition, 48 h
SF-539 CNS = tested on: SF-539 CNS
RXF 393 renal = tested on: RXF 393 renal
T-47D breast = tested on: T-47D breast
HCT-15 colon = tested on: HCT-15 colon
HOP-92 NSCLC = tested on: HOP-92 NSCLC
COLO 205 colon = tested on: COLO 205 colon
IGROV1 ovarian = tested on: IGROV1 ovarian
K-562 leukemia = tested on: K-562 leukemia
MDA-MB-435 = tested on: MDA-MB-435
DU-145 prostate = tested on: DU-145 prostate
SK-MEL-5 melanoma = tested on: SK-MEL-5 melanoma
HOP-62 NSCLC = tested on: HOP-62 NSCLC
MCF7 breast = tested on: MCF7 breast
A549 NSCLC = tested on: A549 NSCLC
U251 CNS = tested on: U251 CNS
UACC-62 melanoma = tested on: UACC-62 melanoma
UACC-257 melanoma = tested on: UACC-257 melanoma
KM12 colon = tested on: KM12 colon
PC-3 prostate = tested on: PC-3 prostate
BT-549 breast = tested on: BT-549 breast
NCI-H23 lung = tested on: NCI-H23 lung
ACHN renal = tested on: ACHN renal
NCI-H460 lung = tested on: NCI-H460 lung
OVCAR-3 ovarian = tested on: OVCAR-3 ovarian
SK-MEL-2 melanoma = tested on: SK-MEL-2 melanoma
786-0 renal = tested on: 786-0 renal
NCI-H522 lung = tested on: NCI-H522 lung
HT29 colon = tested on: HT29 colon
SNB-75 CNS = tested on: SNB-75 CNS
EKVX NSCLC = tested on: EKVX NSCLC
OVCAR-8 ovarian = tested on: OVCAR-8 ovarian
MOLT-4 leukemia = tested on: MOLT-4 leukemia
M14 melanoma = tested on: M14 melanoma
SF-268 CNS = tested on: SF-268 CNS
HL-60(TB) leukemia = tested on: HL-60(TB) leukemia
MALME-3M melanoma = tested on: MALME-3M melanoma
HCC-2998 colon = tested on: HCC-2998 colon
SF-295 CNS = tested on: SF-295 CNS
SW-620 colon = tested on: SW-620 colon
SK-MEL-28 melanoma = tested on: SK-MEL-28 melanoma
NCI-H226 lung = tested on: NCI-H226 lung
HCT-116 colon = tested on: HCT-116 colon
SK-OV-3 ovarian = tested on: SK-OV-3 ovarian
SNB-19 CNS = tested on: SNB-19 CNS
OVCAR-5 ovarian = tested on: OVCAR-5 ovarian
TK-10 renal = tested on: TK-10 renal
NCI/ADR-RES ovarian = tested on: NCI/ADR-RES ovarian
CAKI-1 renal = tested on: CAKI-1 renal
MDA-MB-231 breast = tested on: MDA-MB-231 breast
A498 renal = tested on: A498 renal
UO-31 renal = tested on: UO-31 renal
CCRF-CEM leukemia = tested on: CCRF-CEM leukemia
HS 578T breast = tested on: HS 578T breast
SN12C renal = tested on: SN12C renal

Q: What does the source list for `COC(=O)c1ccc(NC2=C/C(=N/S(=O)(=O)c3ccc(C(=O)O)cc3)c3ccccc3C2=O)cc1`?
A: GI50 (SF-539 CNS): 1.79 µM; TGI (SF-539 CNS): 3.38 µM; GI50 (RXF 393 renal): 8.1 µM; TGI (RXF 393 renal): 22.4 µM; GI50 (T-47D breast): 3.19 µM; TGI (T-47D breast): 26.8 µM; GI50 (HCT-15 colon): 11 µM; TGI (HCT-15 colon): 35.5 µM; GI50 (HOP-92 NSCLC): 3.71 µM; TGI (HOP-92 NSCLC): 15.6 µM; GI50 (COLO 205 colon): 17.7 µM; TGI (COLO 205 colon): 38.1 µM; GI50 (IGROV1 ovarian): 4.92 µM; TGI (IGROV1 ovarian): 20.8 µM; GI50 (K-562 leukemia): 3.19 µM; TGI (K-562 leukemia): > 100 µM; GI50 (MDA-MB-435): 1.95 µM; TGI (MDA-MB-435): 3.67 µM; GI50 (DU-145 prostate): 11.7 µM; TGI (DU-145 prostate): 24.7 µM; GI50 (SK-MEL-5 melanoma): 3.18 µM; TGI (SK-MEL-5 melanoma): 10.1 µM; GI50 (HOP-62 NSCLC): 17.3 µM; TGI (HOP-62 NSCLC): 38.3 µM; GI50 (MCF7 breast): 1.89 µM; TGI (MCF7 breast): 4.4 µM; GI50 (A549 NSCLC): 29.8 µM; TGI (A549 NSCLC): > 100 µM; GI50 (U251 CNS): 4.01 µM; TGI (U251 CNS): 28.8 µM; GI50 (UACC-62 melanoma): 2.08 µM; TGI (UACC-62 melanoma): 4.55 µM; GI50 (UACC-257 melanoma): 2.06 µM; TGI (UACC-257 melanoma): 4.6 µM; GI50 (KM12 colon): 10.7 µM; TGI (KM12 colon): 25.3 µM; GI50 (PC-3 prostate): 3.4 µM; TGI (PC-3 prostate): 25.3 µM; GI50 (BT-549 breast): 15 µM; TGI (BT-549 breast): 32.6 µM; GI50 (NCI-H23 lung): 3.18 µM; TGI (NCI-H23 lung): 18.2 µM; GI50 (ACHN renal): 1.88 µM; TGI (ACHN renal): 4.19 µM; GI50 (NCI-H460 lung): 20.6 µM; TGI (NCI-H460 lung): 50.8 µM; GI50 (OVCAR-3 ovarian): 2.17 µM; TGI (OVCAR-3 ovarian): 5.94 µM; GI50 (SK-MEL-2 melanoma): 2.35 µM; TGI (SK-MEL-2 melanoma): 6.51 µM; GI50 (786-0 renal): 10.9 µM; TGI (786-0 renal): 58.4 µM; GI50 (NCI-H522 lung): 1.92 µM; TGI (NCI-H522 lung): 4.76 µM; GI50 (HT29 colon): 21.3 µM; TGI (HT29 colon): 47.4 µM; GI50 (SNB-75 CNS): 2.1 µM; TGI (SNB-75 CNS): 10.1 µM; GI50 (EKVX NSCLC): 2.1 µM; TGI (EKVX NSCLC): 5.83 µM; GI50 (OVCAR-8 ovarian): 3.2 µM; TGI (OVCAR-8 ovarian): 46.2 µM; GI50 (MOLT-4 leukemia): 1.74 µM; TGI (MOLT-4 leukemia): 4.47 µM; GI50 (M14 melanoma): 5.7 µM; TGI (M14 melanoma): 23.9 µM; GI50 (SF-268 CNS): 6.33 µM; TGI (SF-268 CNS): 37.5 µM; GI50 (HL-60(TB) leukemia): 2.55 µM; TGI (HL-60(TB) leukemia): 6.52 µM; GI50 (MALME-3M melanoma): 1.89 µM; TGI (MALME-3M melanoma): 3.52 µM; GI50 (HCC-2998 colon): 10.4 µM; TGI (HCC-2998 colon): 27 µM; GI50 (SF-295 CNS): 11.7 µM; TGI (SF-295 CNS): 26.9 µM; GI50 (SW-620 colon): 2.78 µM; TGI (SW-620 colon): > 100 µM; GI50 (SK-MEL-28 melanoma): 2.46 µM; TGI (SK-MEL-28 melanoma): 5.89 µM; GI50 (NCI-H226 lung): 15.2 µM; TGI (NCI-H226 lung): 34.6 µM; GI50 (HCT-116 colon): 2.81 µM; TGI (HCT-116 colon): 10.2 µM; GI50 (SK-OV-3 ovarian): 21 µM; TGI (SK-OV-3 ovarian): 44.5 µM; GI50 (SNB-19 CNS): 16.9 µM; TGI (SNB-19 CNS): 33.2 µM; GI50 (OVCAR-5 ovarian): 14 µM; TGI (OVCAR-5 ovarian): 33.4 µM; GI50 (TK-10 renal): 25.2 µM; TGI (TK-10 renal): 42.8 µM; GI50 (NCI/ADR-RES ovarian): 3.06 µM; TGI (NCI/ADR-RES ovarian): 11.8 µM; GI50 (CAKI-1 renal): 10 µM; TGI (CAKI-1 renal): 23.1 µM; GI50 (MDA-MB-231 breast): 2.51 µM; TGI (MDA-MB-231 breast): 8.1 µM; GI50 (A498 renal): 22.9 µM; TGI (A498 renal): 42.4 µM; GI50 (UO-31 renal): 2.94 µM; TGI (UO-31 renal): 15.3 µM; GI50 (CCRF-CEM leukemia): 3.21 µM; TGI (CCRF-CEM leukemia): > 100 µM; GI50 (HS 578T breast): 3.36 µM; TGI (HS 578T breast): 48 µM; GI50 (SN12C renal): 2.13 µM; TGI (SN12C renal): 5.15 µM
